{
  "source": "patent US20090176798A1",
  "about": "“New compounds III” (Biovitrum AB, priority 2007, published 2009)",
  "key": {"JEG-3 cells [1]": {"test_system": "JEG-3 cells", "test": "[3H]-thymidine incorporation in JEG-3 cells (leptin assay in non-recombinant system)", "format": "cell-based", "conditions": "FIG. 5", "protocol": "In JEG-3 cells (choriocarcinoma cell line) leptin is able to stimulate proliferation up to 3 fold (Biol. Reprod. (2007) 76: 203-10). […] The radioactivity incorporated by the cells is an index of their proliferative activity and is measured in counts per minute (CPM) with a liquid scintillation beta counter.\nThis finding can be applied to test whether a compound is able to either reproduce the effect of leptin on cell proliferation (leptin receptor agonist mimetic) (i.e., a given compound will cause an increase in incorporated [^3H]-Thymidine by the cells) or to inhibit the effect of leptin (antagonistic effect) by preventing the leptin-mediated increase in [^3H]-thymidine incorporation.\nThis approach has the advantage of using a non-recombinant system and has reasonable reproducibility and robustness."}, "JEG-3 cells [2]": {"test_system": "JEG-3 cells", "conditions": "Biol. Reprod. (2007) 76: 203-10; cited from earlier work"}},
  "data": [
    {"substance": "leptin: a hormone synthesized in fat cells that is believed to act in the hypothalamus to reduce food intake and body weight", "values": [
      {"measurement": "EC50", "setting": "JEG-3 cells [1]; JEG-3 cells (choriocarcinoma cell line), read-out: EC50, increase in [3H]-thymidine incorporation", "result": 2.1, "unit": "nM"},
      {"measurement": "concentration of maximal effect on [3H]-thymidine incorporation", "setting": "JEG-3 cells [1]; JEG-3 cells", "result": 100, "unit": "nM"},
      {"measurement": "stimulation of proliferation", "setting": "JEG-3 cells [2]", "result": "up to 3 fold"}
    ]}
  ]
}
